Here are results for 4 molecules from ChEMBL document CHEMBL4602622, “Serendipitous discovery of aryl boronic acids as β-lactamase inhibitors” (Bioorg Med Chem Lett, 2020).

This assay in a line: Inhibition of Pseudomonas aeruginosa AmpC.
For the molecule `O=C(c1nc(-c2ccccc2)cs1)N1CCC(c2ccccn2)C1` (stereo in doubt; 2), inhibition was half-maximal at 43 µM (IC50). Consider `C1=NC2(CCc3ccc(-c4ccccc4)cc3C2)CN1` (stereo in doubt; 1), for which the IC50 (commonly the midpoint of a concentration-inhibition curve) was 15 µM. Take `C1=NC2(CCc3ccc(-c4ccccc4)cc3C2)CN1` (stereo in doubt): the half-maximal inhibitory concentration (IC50) was over 100 µM.

Molecule `O=C(c1nc(-c2ccccc2)cs1)N1CCC(c2ccccn2)C1` (stereo in doubt) gave an IC50 of over 100 µM.
